The text below walks through data of patent US12624031B2, “Inhibitors of ubiquitin specific peptidase 22 (USP22) and uses thereof for treating diseases and disorders” (Northwestern University, priority 2022, dated 2026).

The test system of series [1] is PD-L1 expression in A549 cells. The series is described as follows: PD-L1 expression in A549 cells by flow cytometry. Particulars: Homo sapiens; A549 cells, 48 hours; unit inferred; read-out: IC50 inhibition of PD-L1 expression. The class given is cell-based, human. The protocol: FIG. 13: The effects of USP22i-S02-S106 on suppression of PD-L1 expression on human lung adenocarcinoma cells. Human […] lung adenocarcinoma A549 cells were treated with S02-S106 or its lead compound S02 for 48 hours. The expression levels of PD-L1 were determined by flow cytometry. (A) Representative flow data from A549 cells treated with 2 μM S02-S106 or with 15 μM S02 are shown. DMSO treated cells were used as an untreated control and USP22 CRISPR knockout A549 cells were used as a positive control. (B) The dose-dependent inhibition of PD-L1 expression in A549 cells by S02-S106 with USP22i-S02 as a control. Data were normalized with PD-L1 expression levels in USP22-KO cells as 100% of USP22 inhibition as shown in A. (C) Inhibition of PD-L1 expression in WT and USP22-null A549 cells by S02-S106.
We then used PD-L1 expression level as a measurement to evaluate the inhibitory efficacy of USP22 by S02-S106.
To determine the specificity of USP22i-S02-S106, we treated the WT and USP22-null lung cancer cells.

A further series relates to naïve mice. The series is described as follows: toxicity and Treg phenotype in naïve mice. The class given is in vivo. The protocol: B, FOXP3 MFI in WT and 22KO of Treg cells after treatment with 20 μg/kg of Usp22i-S02 in vivo (n=3). C, Representative flow cytometry plot of FOXP3+CD25+MFI of CD4+ peripheral cells of mice treated with 20 μg/kg of Usp22i-S 02 relative to control (n=5). D, Graphical representation of Foxp3 MFI upon Usp22i-S02 administration (n=5). E, Tumor growth curve of LLC1 cells subcutaneously injected in the flank of WT mice with or without the addition of 20 mg/kg/time of the Usp22 inhibitor starting at day 15, in 100 μL of oil (n=4). F-G, Representative flow cytometry plot and graphical representation of % infiltration of CD4+ and CD8+ T cells within the tumor (n=4). H, Representative histogram plot and graphical representation of intratumoral Treg (itTreg) Foxp3 MFI (n=4). I, MFI of itTreg suppressive markers (n=3-4). J, Percent Foxp3+IFNg+itTreg cells in control and Usp22-S02 treated mice (n=3-4). B, D-E, G, H-I Two-way ANOVA with multiple comparisons between rows was performed to determine statistical significance. J, Unpaired two tailed T test was performed to determine significance. All data are presented as mean±stdev. NS, not significant. *P<0.05, **P<0.01, ***P<0.001, ****P<0.0001.
A, Body weight of Usp22i-S02 treated mice verses DMSO treated controls over the course of treatment (n=4). A-F. Injections were twice a day for 3 consecutive days at 10 μg/kg (n=4). B, Percent of cell populations in naïve mice treated with Usp22i-S02 relative to DMSO control (n=3-4). […] D, Percent CD44^hiCD62L^lo in T cell populations gated on CD45+ cells in naïve mice treated with Usp22i-S02 relative to DMSO control (n=3). E, Percent Annexin+PI+ T cells gates on CD45+ cells in naïve mice treated with Usp22i-S02 relative to DMSO control (n=4). F-H, Organ toxicity panel (VetScan VS2 Comprehensive Diagnostic Rotor lot 1061AA2) of naïve mice treated with Usp22i-S02 relative to DMSO control (n=2-3). I, Growth curve of subcutaneously injected LLC1 in WT mice treated with Usp22i-S02 at 10 μg/kg (n=5-10). I-Q, Injections were twice a day for 5 consecutive days at 10 μg/kg. J, Weights of resected tumors at day 16 from I (n=10). K-L, Representative flow plot and graphical representation of infiltrating T cells gated on CD45+ cells (n=5). M-P, Characterization of intratumoral CD8+ T cells frome mice treated with Usp22i-S02 (n=3-5). Q, Percent of intratumoral Treg cells from mice treated with Usp22i-S02 verses DMSO control, gated on CD4+Foxp3+ from mice (n=5). A-E, I and L, Two-way ANOVA with Sidaks's multiple comparisons between rows relative to control was performed to determine statistical significance. F-H, J, and M-Q, Two-tailed unpaired t-test was performed to determine statistical significance. All data are presented as mean±stdev. NS, not significant. *P<0.05, **P<0.01, ***P<0.001, ****P<0.0001.
An important aspect of a potential immunotherapeutic is its antitumor functionality paired with low immune toxicity. To determine the toxicity of Usp22i-S02 in vivo, we first determined its effects in naïve mice.

For another series, the system named is LLC1 cells. The series is described as follows: LLC1 cell counts, viability and growth in vitro. The class given is cell-based. Conditions: 24 hours various concentrations; 10 ug/ml for 7 days. The procedure:
FIG. 8: Usp22i-S02 inhibits tumor growth in vitro and in vivo. A, In vitro counts of LLC1 after treatment with Usp22i-S02 under various concentrations for 24 hours (n=2). B, In vitro viability of LLC1 after treatment with Usp22i-S02 under various concentrations for 24 hours (n=2). C, In vitro relative growth of LLC1 cells treated with 10 ug/ml of Usp22i-S02 relative to DMSO treated control for 7 days via OD600 (n=4). D, Growth curve of 1 million subcutaneously injected LLC1 cells into RAG−/− mice treated for 3 days Usp22i-S02 relative to DMSO control injections at day 15 of tumor growth (n=4). C-D, Two-way ANOVA with Sidaks's multiple comparisons between rows relative to control was performed to determine statistical significance. All data are presented as mean±stdev. NS, not significant. *P<0.05, **P<0.01, ***P<0.001, ****P<0.0001.
As Usp22 is also an important oncogene, we were interested in the potential dual-therapeutic function of Usp22i-S02.

The structures appear in SMILES notation.

Regarding `N#Cc1c2c(c(Nc3ccccc3)n3c1nc1ccccc13)CCCC2` [USP22i-S02, 11-anilino-7,8,9,10-tetrahydrobenzimidazo[1,2-b]isoquinoline-6-carbonitrile], the IC50 in series [1] came out at 13.7 µM. Besides, the “FOXP3 MFI in Usp22-KO mice” value in the series on naïve mice (Usp22-KO mice, 20 μg/kg) is “no additional decrease to FOXP3 MFI”. Further, in the series with naïve mice (WT mice, 20 μg/kg), the “FOXP3 MFI in Treg cells from spleen and lymph nodes” value was “significant drop in FOXP3 MFI”. Besides, in the series with naïve mice (naïve mice), the Treg cell death result is “significantly increased”, the Treg percentage result is on record as “decrease in Treg percentage” and the Treg proliferation entry is “also increased”. Also, the “organ toxicity (comprehensive tissue panel)” value in the series with naïve mice (naïve mice versus DMSO control) was “no organ toxicity differences”. Besides, the “weights, B cell and Teff cell percentages and proliferation, Teff cell activation” value in the series with naïve mice (naïve mice versus DMSO-treated control, twice a day for 3 days at 10 μg/kg) was “little alteration”. Moreover, the “LLC1 tumor cell counts, viability and growth in vitro” value with LLC1 cells is “decreased tumor cell counts, viability, and growth”.
